“Also recorded” adds a separate entry of the source.
Key:
[1] = acute single dose post-ischemia; cited from earlier work
BDNF [2] = assay: BDNF protein levels by immunoblot in the EAE mouse model of MS; type: in vivo; details: for Intensity of the BDNF band (immunoblot): lumbal spinal cord, Day 42, treated Day 7 to Day 21, FIG. 2a
From the text: The tissue was taken on Day 42 of the study during the recovery phase from the lumbal spinal cord of representative mice that were immunized on Day 1 with the MOG peptide, then treated with MP101 starting on Day 7 and stopping on Day 21. […] Untreated animals are shown as naïve. The changes in BDNF levels are therefore 3-weeks post-treatment with DNP (aka MP101).

[3] = tested on: Experimental Autoimmune Encephalomyelitis (EAE); assay: Clinical scores in the EAE mouse model of MS; type: in vivo; details: FIG. 2c
BDNF [4] = assay: BDNF mRNA in brain by semi quantitative PCR after two weeks daily oral gavage; type: in vivo, Wildtype C57BL/6J mice; details: FIG. 1
Method: As described herein below, mitochondrial uncoupler DNP was tested in a range of doses in mice from 0.5 mg/kg of DNP to 10 mg/kg of DNP under oral chronic treatment to titrate the amount of drug in the brain required to induce increases of BDNF endogenously within the brain. […] Therefore, it was discovered that there is a specific and limited dose range of DNP that is necessary to achieve statistically significant survival and behavioral benefit for a host of diseases that benefit from increased BDNF levels. […]

N171-82Q HD mice [5] = assay: Tapered beam and balance beam motor function in N171-82Q HD mice; type: in vivo, mouse; details: after 17-weeks of treatment, FIG. 8f
Method: (§1) MP101 (DNP) was used in a mouse model of Huntington's Disease, the “Fragment Model” N171-82 HD mice, to determine its neuroprotective effects. The N171-82 HD mice were treated with MP101 at 0.5, 1 and 5 mg/kg by oral gavage daily for greater than 17-weeks. At the age of 26-weeks (17-weeks of treatment), the mice were tested for changes in behavioral, loss of brain volume, spiny neurons and general neurons. FIGS. 8a, 8b, 8c, 8d, 8e, and 8f show the effects of DNP (MP101 drug treatment).
(§2) FIGS. 8a-8f show the effects of MP101 in the Huntington's Disease model N171-82Q after 13-weeks (age 22 weeks) and/or 17-weeks (age 26-weeks) of treatment with DNP.

wildtype mice = assay: Kanic acid model of epilepsy, seizure time; type: in vivo, mouse; details: FIG. 6
Method: DNP was also evaluated for a treatment of Epilepsy. The kanic acid model is an acute model of epilepsy caused by an injection in the right hippocampus of an analogue of glutamate (kanic acid) that over-stimulates the neurons causing death.

Mecp2 mutant mice [6] = assay: Clasping test in Mecp2 mutant mice; type: in vivo, mouse; details: 1 mg/kg, 12-weeks of age, 1-month oral gavage, FIG. 4
Method: (§3) MP101 was tested in a model of Rett Syndrome using Mecp2 mutant mice. Rett Syndrome is a developmental disorder in young girls, with first symptoms starting at about 18-months of age, including reduced head growth. FIGS. 3a, 3b, 3c and 4 show the effects of treating these mutant mice with MP101 at 0.5, 1 mg/kg and 5 mg/kg by oral gavage.

SIRT3 KO mice = assay: 6-OHDA dopaminergic degeneration, rotarod in SIRT3 KO mice (Parkinson's); type: in vivo, mouse; details: 14-Days oral gavage, 6-OHDA in right striatum, FIG. 7b
Method: (§4) The merits of treating Parkinson's Disease with MP101 (DNP) was evaluated in wildtype mice and SIRT3 KO mice with 6-OHDA injections after two weeks of MP101 treatment. We examined the neuroprotective effects of varying MP-101 doses (0.5, 1, 5 mg/kg) against dopaminergic degeneration of nigrostriatal neurons induced by a single unilateral stereotaxic injection of neurotoxin 6-hydroxydopamine (6-OHDA) in the right striatum of the brain of 2-3 month old male C57Bl/6 mice or SIRT3 KO mice. SIRT3 KO is a model of a heightened sensitivity to glutamate-induced calcium overload and excitotoxicity, and oxidative and mitochondrial stress, therefore ideal for evaluating Parkinson's Disease, Huntington's Disease and temporal lobe epilepsy.
(§5) FIGS. 7a and 7b show the effects of DNP (MP101) treatment for 14-Days by oral gavage in protecting dopaminergic neuronal loss when the right striatum is injected with 6-OHDA after the last day.

C57Bl/6 mice = assay: 6-OHDA dopaminergic degeneration, cylinder test in wildtype mice (Parkinson's); type: in vivo, mouse
Method: as §4, §5

[7] = tested on: Experimental Autoimmune Encephalomyelitis (EAE); assay: Spinal cord electron microscopy in the EAE mouse model of MS; type: in vivo; details: 5 mg/kg, Day-16 (peak of onset), vs placebo, FIG. 2d
N171-82Q HD mice [8] = assay: MRI brain volume in N171-82Q Huntington's Disease mice; type: in vivo, mouse; details: N171-82Q HD mice vs HD placebo
Method: as §1, §2

Mecp2 mutant mice [9] = assay: Rotarod in Mecp2 mutant mice, a model of Rett Syndrome; type: in vivo, mouse; details: 8-weeks of age; 0.5, 1 and 5 mg/kg oral gavage vs mutant vehicle; FIG. 3a
Method: as §3
In FIGS. 3a and 3b, Mecp2 mutant mice, a model of Rett Syndrome, were treated with MP101 (DNP) at 6-weeks of age and tested on their coordination to walk on a rotating cylinder (rotarod). Wildtype mice are used as a benchmark for general decline in behavior compared to Mecp2 mutant mice treated with Vehicle, 0.5 mg/kg MP101, 1 mg/kg MP101 and 5 mg/kg MP101 by oral gavage.

N171-82Q HD mice [10] = assay: Neuronal biomarkers DARPP32 and PSD95 in N171-82Q HD mice; type: in vivo, mouse
Method: as §1, §2

APP/PS1 mice = assay: Morris Water Maze in APP/PS1 mice (Alzheimer's); type: in vivo, mouse; details: 0.5, 1 and 5 mg/kg oral gavage for 4-months vs Vehicle, FIGS. 5a-5c
Method: In addition, Alzheimer's Disease, representing about 70% of all dementia cases, was evaluated using the APP/PS1 mice, which express the APPswe mutation and PS1deltaE9 mutation and develop relatively rapid Aβ pathology and cognitive deficits. At 4-months of age, the APP/PS1 mice were treated for 4-months by oral gavage delivery with MP101 (DNP) at 0.5, 1 and 5 mg/kg. […] The amount of time spent in the quadrant is an indicator of whether the mice remember the general location, with increased time indicating increased memory.
The amount of time spent in the quadrant is an indicator of whether the subject remembers the general location.

O=[N+]([O-])c1ccc(O)c([N+](=O)[O-])c1 [DNP, 2,4-dinitrophenol]
Infarct volume [1]: reduce infarct volume | ROSs species [1]: lower ROSs species | Intensity of the BDNF band (immunoblot) (BDNF [2]; 0.5 mg/kg and 1 mg/kg vs placebo): increases | Intensity of the BDNF band (immunoblot) (BDNF [2]; 5 mg/kg): plateau effect | BDNF protein level 3-weeks post treatment (BDNF [2]; EAE model, after 2 weeks of treatment, FIG. 2b): statistically elevated level of BDNF protein; also recorded: BDNF levels are elevated in the brain; also recorded: lasting effect | Progression of the phenotype on clinical scores [3]: attenuation of disease progression | BDNF levels in the brain at the highest dose compared with lower doses (BDNF [4]; 10.0 mg/kg daily oral gavage, bell-shaped curve): reduced level of BDNF compared with the next two lower doses; also recorded: less BDNF is expressed | BDNF levels in the brain (mRNA, delta-delta CT, percent change relative to placebo) (BDNF [4]; 0.5, 1.0, 5.0 and 10.0 mg/kg daily oral gavage): induce BDNF within the brain; also recorded: increases BDNF levels in the brain | Motor function in the balance beam (N171-82Q HD mice [5]): improves motor function | Motor function in the tapered beam (N171-82Q HD mice [5]): improves motor function | Seizure time after kanic acid injection (wildtype mice; 1, 5 and 10 mg/kg oral gavage for 2-weeks before injection): shortening of seizure time | Neural protection from over-stimulation by kanic acid (wildtype mice; 1, 5 and 10 mg/kg oral gavage for 2-weeks, relative to Vehicle): provided neural protection | Clasping test (Mecp2 mutant mice [6]): shows an effect | Motor coordination on rotating cylinder (rotarod) (SIRT3 KO mice): improved motor coordination | Protection of dopaminergic neurons from 6-OHDA (C57Bl/6 mice; 0.5, 1, 5 mg/kg for two weeks, C57Bl/6 or SIRT3 KO mice, FIG. 7): protected the dopaminergic neurons | Percent of left and right paw touches on the wall (cylinder) (C57Bl/6 mice; wildtype mice, 14-Days oral gavage, 6-OHDA in right striatum, FIG. 7a): improved | Myelin sheaths surrounding the axons and axons (electron microscopy) [7]: striking axonal protection | Myelin sheaths surrounding the axons and axons (electron microscopy) ([7]; listed as MP101): completely intact | Brain volume loss in the cortex (MRI) (N171-82Q HD mice [8]; FIG. 8b): minor loss | Brain volume loss in the striatum (MRI) (N171-82Q HD mice [8]; FIG. 8c): minor loss | Ability to walk on the rotarod (Mecp2 mutant mice [9]): fall less and can handle higher speeds of rotation | Medium spiny neurons, biomarker DARPP32 (N171-82Q HD mice [10]; 26-weeks of age, FIG. 8d): preserves medium spiny neurons | General neuronal loss, postsynaptic protein PSD95 levels (N171-82Q HD mice [10]; N171-82Q HD mice, FIG. 8e): preserves general neuronal loss | Cognition / short term memory in Morris Water Maze (distance, time in quadrant, entries) (APP/PS1 mice): improved in short term memory | Cognition / short term memory in Morris Water Maze (distance, time in quadrant, entries) (APP/PS1 mice; listed as MP101): improved cognition

— US9974755B2, “Induced expression of brain derived neurotrophic factor (BDNF) for treatment of neuromuscular, neurodegenerative, autoimmune, developmental and/or metabolic diseases” (Mitochon Pharmaceuticals, Inc., priority 2015, dated 2018)
